Test results as given in patent publication US5770623A, “Argine antagonists for inhibition of systemic hypotension associated with nitric oxide production or endothelial derived relaxing factor” (Board of Regents, The University of Texas System, priority 1995, dated 1998).
Entries after “also recorded” stand apart in the source; their conditions may differ.

Legend:
[1] = biological target: EMT6 enzyme system (NO formation from L-arginine) (Mus musculus, UniProt P29477); test: Arginine-dependent nitrite synthesis by cytosol of stimulated EMT6 cells; format: biochemical, murine; details: Lineweaver-Burke
Method: Thus EMT6 cytosolic preparations (i.e., cell-free solutions) were prepared and an enzyme activity was characterized which forms NO and citrulline from arginine. This reaction requires NADPH (FIG. 18 and 19) and other cofactors.
Incubation mixtures were 100 μl total volume containing: 40 μl cytosol (100,000×g supernatant), 2 mM L-arginine, 2 mM NADPH, 20 mM TRIS (pH 8.0) and a "cocktail" of protease inhibitors.
From kinetic studies an apparent Michaelis-Menton constant for L-arginine utilization by the enzyme was deduced. FIG. 20 is a Lineweaver-Burke plot for synthesis of nitrite from L-arginine by cytosol from stimulated EMT6 cells. The rate of nitrite formation was evaluated over a range of L-arginine (ARG) concentrations (from 0.03-2.0 mM) under conditions similar to that described for FIG. 18, except that incubates contained 50 μl cytosol in a total volume of 80 μl. Open and filled circles represent results obtained with each of two cytosol preparations. […] N^G -substituted arginine analogs were screened for precise quantitation of their ability to inhibit arginine-dependent NO formation by the EMT6 enzyme system.

untreated dogs [2] = format: in vivo, dog
Method: (§1) Recombinant human TNF specific activity 2×10^7 units/mg, was from the Niposn Chemical Corporation, Tokyo, Japan. TNF was administered at a dose of 10 mcg/kg in a volume of 10 ml of phosphate buffered saline containing 2 mgs/ml of dog albumin. […] Arginine was obtained from Sigma Chemical Company, St. Louis, Mo.
(§2) Four conditioned mongrel dogs, 2 males and 2 females, weighing 28 to 30 kgs, were studied. Care of the animals were in accordance with the recommendation of the American Association for Accreditation of Laboratory Animals [DHEW(DHHS) publication no. (NIH) 78-23, revised, 1978]. On the day of the experiment, the dogs were fasted overnight. They were anesthetized with phenobarbital (10 mg/kg). They were then intubated orally with a #10 fr. endotracheal tube and ventilated with a Harvard pump ventilator at a rate of 12 breaths per minute and a tidal volume of 15 ml/kg. An arterial line was percutaneously placed in the femoral artery on the day of the experiment.
(§3) Mean (electronic) and phasic systemic arterial pressures (SAP) were continuously recorded on a Hewlett-Packard recording system (model 7758B) using strain gauge manometers (Hewlett-Packard model 1290A) which were connected to the arterial line. Heart rate (HR) was determined from an EKG tracing and continuously recorded on the Hewlett-Packard recording system. Oxyhemoglobin saturation (SaO2) was obtained using a pulse oximeter (BIOX 111, Boulder, Colo.). continuous time-series records of SAP, HR, and SaO2 were obtained using a Lab Master analog-to-digital convertor (16 channel, 12 bit, 30 kHz; Scientific Solutions, Inc.) sampling at 55 Hz and storing the 6 sec averages on a magnetic disk.
(§4) This was followed by a compensatory decrease in the HR with a return of the BP to baseline. The NMMA-induced bradycardia lasted 31 minutes. This response was not observed in animals which had been previously treated with TNF. In a subsequent experiment (FIG. 7a) the hypotensive response to TNF was especially severe, with a decrease in BP from 125 mm to 36 mmHg. […] This was associated with a decrease in the HR from 101 to 92 beats/minute. […] In a second control study nitroglycerin was infused at a rate of 28 μg/kg/minute, IV, to lower the blood pressure to the same level as that observed with tumor necrosis factor (FIG. 7c).

rat aorta = test: ACh-induced relaxation of rat aorta; details: NMMA 5 μM
Method: (§5) Guinea pig pulmonary artery (GP PA), rat and rabbit aorta (Ao), and dog coronary (CA) and femoral artery (FA) were precontracted with NE (1 μM) and relaxed with a single concentration of ACh. Concentration of ACh: GP PA 1 μM, rat Ao […], rabbit Ao 0.3, dog CA […] and […] 0.1 μM. […] The concentrations of L-citrulline (L-cit), D-arginine (D-arg) and L-arginine (L-arg) were all 0.5 mM. Bars are mean values±SEM (n=4-6).

[3] = tested on: bovine aortic endothelial cells (BAEC); test: A23187-stimulated nitrite release from bovine aortic endothelial cells; format: cell-based; details: 3 μg/ml A23187, 4-hour, FIG. 12
Method: The % inhibition of relaxation is calculated from the maximum ACh-induced relaxation observed in the presence of the arginine analog relative to that in its absence. Points represent mean values±SEM (n=4-6). […] Another N^G substitution tested for inhibition of induced nitrite release had two methyl groups on one of the arginine guanidino nitrogens. Concentration-response relationships for inhibition of A23187-stimulated nitrite release by bovine aortic endothelial cells (BAEC) are shown in FIG. 9a for the N,N-disubstituted derivative in comparison with several monosubstituted derivatives. Nitrite production was measured as an indication of nitric oxide synthesis since nitric oxide spontaneously decays to nitrite. Nitrite production by BAEC in a 2-hr. period was assessed in an L-arginine-free medium alone or in the presence of the indicated concentration of arginine analogs. The points plotted represent means±S.E. of the percent inhibition of nitrite production observed in 3 individual BAEC culture wells. The key on FIG. 9a indicates the groups substituted on the guanidino nitrogens of L-arginine.
Points are mean values±SEM (n=3).

[4] = tested on: mongrel dogs with TNF-induced hypotension; test: TNF-induced hypotension in anesthetized dogs; format: in vivo, dog; details: for effect of L-arginine on NMMA pressor effect (words): TNF- and NMMA-treated dogs
Method: as §1, §2, §3

[5] = tested on: murine endothelial cells exposed to Gamma-Interferon and TNF (nitric oxide production); details: mouse endothelial cells, immunomodulators and endotoxin; cited from earlier work
[6] = tested on: nitroglycerin infused dogs; test: Nitroglycerin-induced hypotension in dogs (Example 2); format: in vivo, dog
Method: as §2, §3, §4

[7] = tested on: mongrel dogs with TNF-induced hypotension; details: Kilbourn et al. 1990; listed as L-NMA; cited from earlier work
[8] = tested on: human LAK cells against Raji target cells; test: IL-2 mediated lymphokine activated killer cell activity in vitro; format: cell-based
Method: *% Lysis calculated from the % of release of radioactivity from ^51
Crlabeled Raji Target cells minus spontaneous release.

L929 cells = test: Cytolytic activity of rh-TNF against Actinomycin D-treated L929 cells; format: cell-based, murine
Method: TNF bioactivity was measured by the cytotoxicity towards murine L929 cells, in vitro.

[9] = tested on: dog coronary (CA) and femoral artery (FA); test: ACh-induced relaxation of dog coronary and femoral artery; details: NMMA 100 μM
Method: as §5

[10] = tested on: vascular EDRF/NO synthesis; details: Sakuma et al., cited from earlier work
untreated dogs [11] = test: NMMA in untreated dogs (Example 5); format: in vivo, dog
Method: Administration of ET to dogs was clearly more toxic and less predictable than TNF administration. […] Within 1.5 minutes the blood pressure increased by 33±2.5 mmHg.

anesthetized guinea pig = test: Pressor effect in the anesthetized guinea pig; format: in vivo; details: 1-10 mg/kg i.v. (L-NMA)
Description: Points are mean changes in diastolic arterial pressure (±SEM; n=4-5). Control systolic and diastolic BP was 75±3 and 51±3 mm Hg, respectively.

[12] = tested on: systemic hypotension mediated by interleukin-1; test: Interleukin-1 mediated systemic hypotension; format: in vivo; details: after N^G-aminoarginine

EMT6 enzyme system (NO formation from L-arginine), sequence (P29477 whole entry): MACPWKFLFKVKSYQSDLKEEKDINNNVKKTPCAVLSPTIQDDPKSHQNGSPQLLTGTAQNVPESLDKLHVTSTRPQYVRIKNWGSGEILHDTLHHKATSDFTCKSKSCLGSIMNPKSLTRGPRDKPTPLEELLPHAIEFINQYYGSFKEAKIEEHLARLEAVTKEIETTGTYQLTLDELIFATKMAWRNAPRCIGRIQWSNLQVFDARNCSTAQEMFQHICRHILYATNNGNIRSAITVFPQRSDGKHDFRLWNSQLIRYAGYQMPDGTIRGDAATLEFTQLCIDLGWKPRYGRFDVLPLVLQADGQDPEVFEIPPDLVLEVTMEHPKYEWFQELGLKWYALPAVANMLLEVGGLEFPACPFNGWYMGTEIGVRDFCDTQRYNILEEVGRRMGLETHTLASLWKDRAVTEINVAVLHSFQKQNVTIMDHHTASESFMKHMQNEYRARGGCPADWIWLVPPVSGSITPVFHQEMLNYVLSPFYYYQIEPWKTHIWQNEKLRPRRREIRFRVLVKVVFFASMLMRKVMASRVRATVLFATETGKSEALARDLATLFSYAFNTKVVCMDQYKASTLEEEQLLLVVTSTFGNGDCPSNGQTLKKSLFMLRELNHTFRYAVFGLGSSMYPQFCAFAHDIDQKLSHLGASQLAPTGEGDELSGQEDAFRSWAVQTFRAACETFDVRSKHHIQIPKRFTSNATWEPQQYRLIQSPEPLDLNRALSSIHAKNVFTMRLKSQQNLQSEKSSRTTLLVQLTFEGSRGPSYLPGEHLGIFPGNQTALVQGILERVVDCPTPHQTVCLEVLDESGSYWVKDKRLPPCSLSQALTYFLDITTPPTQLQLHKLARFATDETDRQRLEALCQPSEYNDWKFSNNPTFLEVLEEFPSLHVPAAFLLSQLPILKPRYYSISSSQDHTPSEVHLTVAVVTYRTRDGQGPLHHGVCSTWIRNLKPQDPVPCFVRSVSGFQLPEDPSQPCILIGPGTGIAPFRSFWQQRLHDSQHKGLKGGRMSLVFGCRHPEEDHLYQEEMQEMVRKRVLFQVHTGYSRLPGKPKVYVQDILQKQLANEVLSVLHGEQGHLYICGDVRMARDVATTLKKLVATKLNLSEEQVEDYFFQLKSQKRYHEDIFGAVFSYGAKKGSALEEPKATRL

Question: With `CNC(=N)NCCC[C@H](N)C(=O)O` [NMMA, N^G -methyl-L-arginine] as the molecule, how does the mode of inhibition [1] read?
Answer: The mode of inhibition was “competitive inhibitor”.

Question: And the “duration of NMMA-induced bradycardia” value (untreated dogs [2]; dog, in vivo)?
Answer: The value was 31 min.

Question: And the “time to initial blood pressure increase” value (untreated dogs [2]; untreated dogs (n=3), NMMA alone)?
Answer: Its value is ≤ 1.7 min.

Question: And the “time within which blood pressure increased” value (untreated dogs [2]; untreated dogs, FIG. 7b)?
Answer: Its value is ≤ 2 min.

Question: What about the “blood pressure increase by NMMA” value (untreated dogs [2]; untreated dogs, FIG. 7b, within 2 minutes) of the same molecule?
Answer: Its value is 12 mmHg.

Question: And the “HR after NMMA” value (untreated dogs [2]; untreated dogs, FIG. 7b, decrease from 101)?
Answer: The value was 92 beats/minute.

Question: And the “inhibition of EDRF/NO in vascular preparation” value (rat aorta)?
Answer: The value was “arginine reversible inhibitor of EDRF/NO”.

Question: What about the “effect on EDRF/NO (nitrite) release” value [3] of the same molecule?
Answer: The value was “inhibits EDRF/NO release”.

Question: And the “blood pressure after NMMA” value ([4]; FIG. 7a, TNF-treated)?
Answer: Its value is 115 mm.

Question: What about the “increase in blood pressure by NMMA” value ([4]; FIG. 7a, TNF-treated) of the same molecule?
Answer: The value was 79 mm.

Question: What about the “time to pressor effect” value ([4]; after TNF) of the same molecule?
Answer: The value was ≤ 2 min.

Question: What about the “pressor response in TNF-hypotensive vs normotensive dogs” value ([4]; compared with normotensive dogs) of the same molecule?
Answer: Its value is “much more dramatic in dogs with TNF-induced hypotension than in normotensive dogs”.

Question: What about the “reversal of TNF-associated hypotension” value ([4]; dogs, TNF 10 mcg/kg) of the same molecule?
Answer: Its value is “blocked; also recorded: reverse the hypotension”.

Question: What about the “effect on nitrite accumulation” value [5] of the same molecule?
Answer: The value was “blocked”.

Question: What about the “blood pressure increase by NMMA” value ([6]; nitroglycerin 28 μg/kg/minute IV) of the same molecule?
Answer: The value was 14 mm.

Question: And the “antagonism of nitroglycerin hypotension” value ([6]; similar level of hypotension)?
Answer: Its value is “not antagonized”.

Question: And the “reversal of TNF-induced hypotension” value [7]?
Answer: Its value is “completely reversed; also recorded: substantially reversed”.

Question: What about the “% Target Cell Lysis” value ([8]; [NMMA] 2.0 mM, E:T = 80:1, 40 U/ml IL2) of the same molecule?
Answer: The value was 75.1 ± 4.1%.

Question: And the “effect on proliferation phase or lytic phase of LAK cells” value ([8]; exposed to IL-2, in vitro)?
Answer: The value was “did not alter”.

Question: What about the “anti-tumor activity of IL-2 in vitro” value ([8]; in vitro) of the same molecule?
Answer: Its value is “does not inhibit the anti-tumor activity”.

Question: What about the “TNF Activity” value (L929 cells; [NMMA] 0.125 mM) of the same molecule?
Answer: The value was 536.9 Units/ml.

Question: What about the “TNF Activity” value (L929 cells; [NMMA] 0.250 mM) of the same molecule?
Answer: Its value is 538.2 Units/ml.

Question: What about the “TNF Activity” value (L929 cells; [NMMA] 0.500 mM) of the same molecule?
Answer: The value was 562.4 Units/ml.

Question: What about the “TNF Activity” value (L929 cells; [NMMA] 1.0 mM) of the same molecule?
Answer: The value was 415.7 Units/ml.

Question: What about the “effect on cytolytic effect of TNF towards tumor cells” value (L929 cells; murine L929 cells, in vitro) of the same molecule?
Answer: Its value is “did not alter the cytolytic effect of TNF”.

Question: What about the “inhibition of EDRF/NO in vascular preparation” value [9] of the same molecule?
Answer: The value was “arginine reversible inhibitor of EDRF/NO”.

Question: And the “inhibition of vascular EDRF/NO synthesis” value ([10]; induced by acetylcholine and histamine)?
Answer: Its value is “inhibit vascular EDRF/NO synthesis”.

Question: And the “increase in blood pressure by NMMA” value (untreated dogs [11]; normal untreated dog, compared with 20 mg/kg NMMA in lethal shock)?
Answer: Its value is 35 mm.

Question: What about the “increase in blood pressure by NMMA” value (untreated dogs [11]; untreated animals) of the same molecule?
Answer: Its value is 12 mm Hg.

Question: And the “effect on diastolic BP / pressor effect (words)” value (anesthetized guinea pig)?
Answer: The value was “increase the resting blood pressure”.

Question: What about the “effect on diastolic BP / pressor effect (words)” value (anesthetized guinea pig; listed as L-NMA) of the same molecule?
Answer: Its value is “sustained rise in diastolic BP”.

Question: Which results are given for `N=C(N)NCCC[C@H](N)C(=O)O` [L-arginine, reference compound]?
Answer: effect of L-arginine on the reversal [12]: obviated this reversal; blood pressure after L-arginine ([4]; FIG. 7a, after TNF and NMMA): 37 mmHg; effect of L-arginine on NMMA pressor effect (words) [4]: antagonized; also recorded: completely reversed; also recorded: rapid decrease of blood pressure; effect of L-arginine on NMMA pressor effect (words) ([4]; listed as arginine): reversed; effect of L-arginine after NMMA ([6]; nitroglycerin infused dogs): reversed this modest effect; restoration of EDRF/NO synthesis ([10]; excess L-arginine after L-NMA): restored
